Results on 7 molecules are retold here after ChEMBL document CHEMBL1201862, “PubChem BioAssay data set” (2004).

Each structure is given as a SMILES string.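 Each compound was tested at five concentrations against cells in 96-well plates for 48 hours. Here, GI50 denotes the concentration required for 50% inhibition of growth.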 The source made the active and inactive calls. Rule as the data show it: active = GI50 up to about 1.1 µM and inactive = higher. Some results are limits rather than exact numbers.

Some test systems named below: SN12C; RPMI-8226; OVCAR-4; HOP-92; SR; NCI-H522; A498; SK-MEL-2; SNB-19; UO-31; Hs-578T; HCT-116; SK-OV-3; IGROV-1; U-251; LOX IMVI; OVCAR-8; UACC-62; KM12; SK-MEL-28.
Common to all, as to test: NCI-60 cell line screen, 48 h

In the case of `C=CCOC(=O)/C(=C\c1ccc(OC)c(OC)c1)c1ccc(OC)c(OC)c1`, the GI50 with SN12C is > 100 µM (inactive); in the assay with RPMI-8226 it was 13.4 µM (inactive); in the assay on OVCAR-4 it was > 10 µM (inactive); with HOP-92, 21.8 µM (inactive); in the assay with SR, 22 µM (inactive); with NCI-H522 it was > 100 µM (inactive). Besides, the GI50 in the assay with A498 was 78.7 µM (inactive); in the assay on SK-MEL-2 it was 47.9 µM (inactive); in the assay on SNB-19, 59 µM (inactive); in the assay on UO-31, 20.7 µM (inactive); in the assay with Hs-578T it was 39.1 µM (inactive); in the assay on HCT-116, 25.2 µM (inactive). Also, the GI50 was > 100 µM (inactive) in the assay with SK-OV-3; > 100 µM (inactive) in the assay with IGROV-1; 52.4 µM (inactive) in the assay with U-251; > 10 µM (inactive) in the assay on LOX IMVI; > 100 µM (inactive) in the assay on OVCAR-8; 38.5 µM (inactive) in the assay on UACC-62. In addition, the GI50 in the assay with KM12 is 42.4 µM (inactive); with SK-MEL-28, 33.1 µM (inactive).
Regarding `O=[N+]([O-])c1ccc(O)c(/C=N/c2nc(-c3ccccc3)cs2)c1`, the GI50 with SN12C was 34.8 µM (inactive); in the assay with RPMI-8226 it was 8.95 µM (inactive); in the assay on OVCAR-4 it was 58.3 µM (inactive); with HOP-92 it was 22.9 µM (inactive); in the assay on SR, 3.03 µM (inactive); in the assay with NCI-H522, 19.2 µM (inactive). Also, the GI50 with A498 is > 93.5 µM (inactive); in the assay on SK-MEL-2, 24.4 µM (inactive); in the assay on SNB-19, 29 µM (inactive); in the assay with UO-31, 26.4 µM (inactive); with Hs-578T it was 25.8 µM (inactive); in the assay with HCT-116, 26.7 µM (inactive). In addition, the GI50 is 32.5 µM (inactive) with SK-OV-3; 24.2 µM (inactive) with IGROV-1; 32.2 µM (inactive) with U-251; 15.8 µM (inactive) in the assay on LOX IMVI; 25.9 µM (inactive) in the assay with OVCAR-8; 4.67 µM (inactive) with UACC-62. Moreover, the figures for the GI50 with KM12 and in the assay on SK-MEL-28 were 37.5 µM (inactive) and 31.9 µM (inactive), respectively.
On to `NCCCN1CCN(CCCNc2ccc3ncn4c5ccccc5c(=O)c2c34)CC1`, for which the GI50 was 0.826 µM (active) in the assay with SN12C; 1.52 µM (inactive) in the assay with RPMI-8226; 0.728 µM (active) in the assay with OVCAR-4; 1.36 µM (inactive) with HOP-92; 1.21 µM (inactive) with SR; 0.456 µM (active) in the assay with NCI-H522. Moreover, the GI50 in the assay on A498 is 1.69 µM (inactive); with SK-MEL-2, 2.8 µM (inactive); in the assay with SNB-19, 0.887 µM (active); in the assay on UO-31 it was 5.28 µM (inactive); in the assay with Hs-578T it was 3.16 µM (inactive); in the assay with HCT-116 it was 1.03 µM (active). For the same molecule, the GI50 is 4.98 µM (inactive) in the assay with SK-OV-3; 1.04 µM (active) in the assay on IGROV-1; 1.02 µM (active) in the assay with U-251; 0.875 µM (active) in the assay with LOX IMVI; 1.87 µM (inactive) in the assay with OVCAR-8; 2.14 µM (inactive) with UACC-62. Besides, the figures for the GI50 in the assay with KM12 and in the assay on SK-MEL-28 were 3.29 µM (inactive) and 4.47 µM (inactive), respectively.
Turning to `CCCC(=O)[O-].[Na+]` [SODIUM BUTYRATE], the GI50 is 5310 µM (inactive) in the assay on SN12C; 243 µM (inactive) with RPMI-8226; 18700 µM (inactive) with OVCAR-4; 5680 µM (inactive) in the assay on HOP-92; 789 µM (inactive) in the assay on SR; 3440 µM (inactive) in the assay with NCI-H522. The GI50 is 4400 µM (inactive) in the assay on A498; 4720 µM (inactive) with SK-MEL-2; 8170 µM (inactive) in the assay with SNB-19; 2520 µM (inactive) in the assay with UO-31; 251 µM (inactive) in the assay with Hs-578T; 1390 µM (inactive) in the assay on HCT-116. Moreover, the GI50 was 3030 µM (inactive) in the assay on SK-OV-3; 4450 µM (inactive) in the assay with IGROV-1; 4790 µM (inactive) in the assay with U-251; 3520 µM (inactive) in the assay on LOX IMVI; 1990 µM (inactive) in the assay on OVCAR-8; 1650 µM (inactive) in the assay on UACC-62. Further, the GI50 was 9440 µM (inactive) with KM12 and 4170 µM (inactive) with SK-MEL-28.
As to `Cn1c(=O)c2c(ncn2CCNC(CO)C(O)c2ccc([N+](=O)[O-])cc2)n(C)c1=O` (stereo not given), the GI50 with SN12C, in the assay with RPMI-8226, in the assay on OVCAR-4, with HOP-92, in the assay with SR and in the assay with NCI-H522 was > 100 µM (inactive) in each case. The GI50 with A498 is > 100 µM (inactive); with SK-MEL-2, > 100 µM (inactive); in the assay on SNB-19 it was > 100 µM (inactive); in the assay on UO-31, > 100 µM (inactive); with Hs-578T it was > 10 µM (inactive); in the assay with HCT-116 it was > 100 µM (inactive). Further, the GI50 in the assay on SK-OV-3 was > 100 µM (inactive); in the assay on IGROV-1 it was > 10 µM (inactive); with U-251, > 100 µM (inactive); with LOX IMVI, > 100 µM (inactive); in the assay with OVCAR-8, > 100 µM (inactive); in the assay with UACC-62, > 100 µM (inactive). Also, the GI50 in the assay with KM12 and in the assay with SK-MEL-28 was > 100 µM (inactive) in each case.
As for `CCOC(=O)c1c(C)n(-c2ccc(Cl)cc2)c2c1cc(O)c1[nH]c3c(c12)CCCC3`, the GI50 with SN12C was 65.2 µM (inactive); in the assay with RPMI-8226 it was 33.9 µM (inactive); with OVCAR-4 it was 45.8 µM (inactive); in the assay on HOP-92, 38.5 µM (inactive); in the assay with SR it was 3.87 µM (inactive); in the assay on NCI-H522 it was 24.3 µM (inactive). The GI50 is 73.1 µM (inactive) in the assay with A498; 29.6 µM (inactive) in the assay with SK-MEL-2; 46.3 µM (inactive) in the assay on SNB-19; > 100 µM (inactive) with UO-31; 22.5 µM (inactive) in the assay on Hs-578T; > 100 µM (inactive) in the assay on HCT-116. Further, the GI50 in the assay with SK-OV-3 was > 100 µM (inactive); in the assay on IGROV-1, 44.4 µM (inactive); in the assay with U-251, 38.3 µM (inactive); with LOX IMVI, 29.4 µM (inactive); in the assay with OVCAR-8, 55.6 µM (inactive); in the assay on UACC-62, 27.1 µM (inactive). Besides, the GI50 was 29 µM (inactive) in the assay on KM12 and 33.2 µM (inactive) in the assay with SK-MEL-28.
With `O=[N+]([O-])/C=C/c1cc2ccccc2[nH]1`, the GI50 with SN12C was 17.7 µM (inactive); with RPMI-8226 it was 2.96 µM (inactive); with OVCAR-4, 14.1 µM (inactive); in the assay on HOP-92, 19.8 µM (inactive); with SR, 5.06 µM (inactive); in the assay with NCI-H522 it was 9.35 µM (inactive). For the same molecule, the GI50 with A498 is 19.3 µM (inactive); in the assay on SK-MEL-2 it was 19.3 µM (inactive); in the assay on SNB-19, 17.5 µM (inactive); with UO-31, 14.8 µM (inactive); in the assay with Hs-578T it was 22.5 µM (inactive); with HCT-116, 4.31 µM (inactive). The GI50 in the assay on SK-OV-3 is 16.9 µM (inactive); in the assay with IGROV-1 it was 12.2 µM (inactive); in the assay with U-251 it was 12.4 µM (inactive); in the assay with LOX IMVI it was 14.2 µM (inactive); with OVCAR-8, 21.6 µM (inactive); in the assay with UACC-62, 18.2 µM (inactive). Besides, the values for the GI50 in the assay with KM12 and with SK-MEL-28 were 12.2 µM (inactive) and 25.4 µM (inactive), respectively.
